According to US20250179143A1, “SYSTEMS AND METHODS FOR CHAPERONE-MEDIATED LIGAND EXCHANGE ON MHC-I AND MHC-RELATED MOLECULES USING CHICKEN TAPBPR” (priority 2022, published 2025):
Each block holds one substance with its values, some of them ahead of it. Non-standard residues stand in square brackets, D forms with d. No end group written: not given here.

Assays:
[1] = DSF thermal stability of pMHC-I molecules; type: physicochemical
[2] = target: chTAPBPR/HLA-B*08:01 complex (Homo sapiens, UniProt P01889, A93T/A95T/D138N/E176V/E187T/K202T/Q94N/R180D/S35A/V36M/Y33D/Y91F); assay: EMSA of peptide-receptive complex with peptides; conditions: 10-fold molar excess peptide
HLA-A*02:01 = HLA-A*02:01 (Homo sapiens, UniProt P04439, D140Y/D185E/D98H/E176V/E277Q/G131W/G231S/I119V/I121R/I166T/I218V/L300P/L318F/N151K/N90K/P208A/P217A/Q86G/Q94H/R138H/R169H/T345S); assay: Fluorescence polarization (FP) peptide exchange
[3] = HLA-A*02:01 refolded with the named peptide
[4] = absence or presence of 10 nM hTAPBPR

Substance: A*02:01/βFILGFVFTV: HLA-A*02:01 loaded with βFILGFVFTV (SEQ ID NO: 66) ([βPhe]ILGFVFTV-OH; not fully specified; printed as βFILGFVFTV; also: loaded in HLA-A*02:01 complex)
Tm (° C.) ([1]; HLA-A*02 subtypes loaded with KILGFVFβFV and HLA-A*02:01 loaded with βF scanning peptides): 53.9 °C

Substance: AIFQSSMTK [HIV]
pMHC-I bands upon incubation of the complex with the peptide [2]: not

pMHC-I bands upon incubation of the complex with the peptide [2]: discrete pMHC-I bands
Substance: ALWMRLLPL [T1D30]

Substance: FLRGRAYGL [EBV]
pMHC-I bands upon incubation of the complex with the peptide [2]: discrete pMHC-I bands

Substance: ILDTAGQEEY [RAS, reference compound]
Tm ([1]; HLA-A*01:01 refolded with the named peptide): 52 °C

Substance: KILGFVF(BF)V [BetaA02]
Tm [1, 3]: 53 °C
exchange of βF placeholder peptide on HLA-A*02:01 for fluorescent peptide (HLA-A*02:01; 5000 nM hTAPBPR): complete fluorescent peptide exchange

Substance: KILGFVFJV (photolabile J residue; VARIANT 8 J=3-amino-3-(2-nitrophenyl)-propionic acid) [PhotoA02, reference compound]
Tm [1, 3]: 52 °C

Substance: KILGFVβFTV [βF-P7]
Tm [1, 3]: 63 °C
exchange of βF placeholder peptide on HLA-A*02:01 for fluorescent peptide (HLA-A*02:01; 5000 nM hTAPBPR): allowed peptide loading
exchange of βF placeholder peptide on HLA-A*02:01 for fluorescent peptide (HLA-A*02:01; [4]): no peptide exchange

Substance: KILGFβFFTV [βF-P6]
Tm [1, 3]: 61 °C
exchange of βF placeholder peptide on HLA-A*02:01 for fluorescent peptide (HLA-A*02:01; 5000 nM hTAPBPR): allowed peptide loading
exchange of βF placeholder peptide on HLA-A*02:01 for fluorescent peptide (HLA-A*02:01; [4]): no peptide exchange

Substance: KILGβFVFTV [βF-P5]
Tm [1, 3]: 62 °C
exchange of βF placeholder peptide on HLA-A*02:01 for fluorescent peptide (HLA-A*02:01; 5000 nM hTAPBPR): allowed peptide loading

Substance: KILβFFVFTV [βF-P4]
exchange of βF placeholder peptide on HLA-A*02:01 for fluorescent peptide (HLA-A*02:01; 5000 nM hTAPBPR): complete fluorescent peptide exchange

Substance: KIβFGFVFTV [βF-P3]
Tm [1, 3]: 58 °C
exchange of βF placeholder peptide on HLA-A*02:01 for fluorescent peptide (HLA-A*02:01; 5000 nM hTAPBPR): complete fluorescent peptide exchange

Substance: MLYQHLLPL [T1D95]
pMHC-I bands upon incubation of the complex with the peptide [2]: discrete pMHC-I bands

Substance: βFILGFVFTV [βF-P1]
exchange of βF placeholder peptide on HLA-A*02:01 for fluorescent peptide (HLA-A*02:01; 5000 nM hTAPBPR): complete fluorescent peptide exchange
